Measured values: BindingDB's records for doi:10.1124/mol.58.6.1601 (University of California Irvine, 2000)

Legend:
[1] = molecular target: T1, Cysteinyl leukotriene receptor 1 (Homo sapiens, UniProt Q9Y271)
T1 sequence (Q9Y271 whole entry): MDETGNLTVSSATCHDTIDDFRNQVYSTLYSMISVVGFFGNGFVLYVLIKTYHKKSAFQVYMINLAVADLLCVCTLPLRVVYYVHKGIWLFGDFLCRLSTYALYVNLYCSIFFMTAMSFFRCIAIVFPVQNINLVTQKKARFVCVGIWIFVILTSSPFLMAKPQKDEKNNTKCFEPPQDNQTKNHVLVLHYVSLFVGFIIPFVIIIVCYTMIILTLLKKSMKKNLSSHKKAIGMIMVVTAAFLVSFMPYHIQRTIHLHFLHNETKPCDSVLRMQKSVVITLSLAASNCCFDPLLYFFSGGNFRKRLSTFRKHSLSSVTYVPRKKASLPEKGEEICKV

[2] = molecular target: T2, Cysteinyl leukotriene receptor 2 (Homo sapiens, UniProt Q9NS75)
T2 sequence (Q9NS75 whole entry): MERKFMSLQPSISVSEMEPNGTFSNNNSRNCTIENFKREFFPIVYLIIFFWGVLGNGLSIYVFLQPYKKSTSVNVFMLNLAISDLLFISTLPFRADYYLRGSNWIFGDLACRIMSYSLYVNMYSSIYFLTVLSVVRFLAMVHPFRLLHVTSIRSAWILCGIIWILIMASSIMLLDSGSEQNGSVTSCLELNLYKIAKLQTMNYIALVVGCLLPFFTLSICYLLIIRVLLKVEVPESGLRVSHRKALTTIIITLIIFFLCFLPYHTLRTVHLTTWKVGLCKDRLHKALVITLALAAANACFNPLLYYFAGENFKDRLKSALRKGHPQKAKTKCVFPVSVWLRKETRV

Ki [1] [nM]	Ki [2] [nM]	Structure (SMILES)
10.4	1000	CN(C)C(=O)CCSC(SCCC(=O)O)c1cccc(/C=C/c2ccc3ccc(Cl)cc3n2)c1 (stereo not drawn) [3-(((3-(2-(7-chloroquinoline-2-yl)ethenyl)phenyl)((3-dimethylamino-3-oxopropyl)thio)methyl)thio)propanoic acid]
–	300	CCCCC/C=C\C/C=C/C=C/C=C/[C@@H](Sc1ccc(C(=O)O)cc1)[C@@H](O)CCCC(=O)O [CAS_134733-55-4]
